Experimental data taken from patent publication US10246481B2, “Bile acid derivatives and methods for synthesis and use” (City of Hope, priority 2016, dated 2019).
Blank lines part the entries; values can stand above or below the molecule they belong to.

Columns and labels:
phosphorylated AKT = test: Western blot of AKT phosphorylation in mouse primary hepatocytes from wild-type or fxr-/- mice; conditions: serum-starved mouse primary hepatocytes, 10 min
FXR target gene SHP = test: qPCR analysis of the FXR target gene SHP in HepG2 cells; format: cell-based, human; conditions: serum starved HepG2, overnight; 100 μM UDCA, 10 μM 6EUDCA; normalized with 36b4
pAKT S473 = test: Western blot of AKT phosphorylation in serum-starved HepG2 cells; format: cell-based, human; conditions: 10 min
Method: Cell extracts were used to separate proteins by SDS-PAGE, and Western blot analysis was performed using specific antibodies against phosphorylated AKT and phosphorylated GSK3beta. […] Extracts were analyzed by Western blot using specific antibodies against pAKT S473 (left panel) or pGSK3beta (right panel).
To further investigate the dose dependence of AKT phosphorylation, we treated HepG2 cells with increasing concentrations of 6EUDCA. Serum-starved HepG2 cell extracts were prepared after incubation with different concentrations of 6EUDCA (DMSO/0 M, 1 μM, 3 μM, 10 µM or 30 µM) for 10 min. Extracts were analyzed by Western blot using specific antibodies against pAKT S473 (left panel) or pGSK3beta (right panel).

GST-hFXR = biological target: T1, GST-hFXR (Homo sapiens, UniProt Q96RI1); conditions: UDCA 1000, 300 or 100 μM; 6EUDCA 100, 30 or 10 μM; 15 or 25 min
T1 sequence (Q96RI1 1-486): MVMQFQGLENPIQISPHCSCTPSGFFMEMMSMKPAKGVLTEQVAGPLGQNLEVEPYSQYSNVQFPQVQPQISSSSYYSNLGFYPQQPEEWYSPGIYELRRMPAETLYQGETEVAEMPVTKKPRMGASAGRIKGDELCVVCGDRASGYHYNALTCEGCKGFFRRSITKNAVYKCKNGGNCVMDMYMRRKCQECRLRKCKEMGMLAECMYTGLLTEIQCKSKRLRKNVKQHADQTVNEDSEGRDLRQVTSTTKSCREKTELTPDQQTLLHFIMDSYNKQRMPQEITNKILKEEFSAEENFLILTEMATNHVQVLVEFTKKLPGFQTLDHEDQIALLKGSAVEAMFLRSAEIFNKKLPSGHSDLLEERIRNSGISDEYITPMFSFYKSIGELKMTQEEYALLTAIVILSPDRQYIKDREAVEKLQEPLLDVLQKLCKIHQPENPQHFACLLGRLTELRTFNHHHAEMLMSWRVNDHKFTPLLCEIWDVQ

phosphorylation of AKT in fxr-/- hepatocytes (phosphorylated AKT): not in fxr−/− hepatocytes
Structure (SMILES): C[C@H](CCC(=O)O)[C@H]1CC[C@H]2[C@@H]3[C@@H](O)C[C@@H]4C[C@H](O)CC[C@]4(C)[C@H]3CC[C@]12C [UDCA, Ursodeoxycholic acid, reference compound]
phosphorylation of AKT in wild-type hepatocytes (phosphorylated AKT): induced phosphorylation of AKT in wild-type hepatocytes

Structure (SMILES): CC[C@H]1[C@H](O)[C@@H]2[C@H](CC[C@]3(C)[C@@H]([C@H](C)CCC(=O)O)CC[C@@H]23)[C@@]2(C)CC[C@@H](O)C[C@@H]12 [6EUDCA, 3α, 7β-Dihydroxy-6α-ethyl-5β-cholan-24-oic acid]
phosphorylation of AKT in fxr-/- hepatocytes (phosphorylated AKT): not in fxr−/− hepatocytes
phosphorylation of AKT in wild-type hepatocytes (phosphorylated AKT): induced phosphorylation of AKT in wild-type hepatocytes
induction of the FXR target gene SHP (qPCR) (FXR target gene SHP): neither UDCA nor 6EUDCA could induce the FXR target gene SHP
dose dependence of AKT phosphorylation (pAKT S473; HepG2, 1 μM, 3 μM, 10 μM or 30 μM): dose dependent
induction of AKT phosphorylation (pAKT S473; serum starved HepG2 cells): effective in inducing AKT phosphorylation
binding to FXR in TR-FRET assay (reduction in fluorescence signal of DY246) (GST-hFXR): binds FXR with higher affinity
